ChEMBL document CHEMBL3046298, “Synthesis and metal ion binding activity of methyl 12-amino-13-nitro-7-oxo dehydrodeisopropylabietate derivatives” (Med Chem Res, 2012)

Columns and labels:
[1] = Metal chelating activity of the compound assessed as formation of copper complex by fluorescence quenching assay; type: physicochemical
[2] = Metal chelating activity of the compound assessed as formation of iron complex by fluorescence quenching assay; type: physicochemical

| SMILES | Ka [1] [L/mol] | Ka [2] [L/mol] |
| --- | --- | --- |
| COC(=O)[C@]1(C)CCC[C@]2(C)c3cc(Nc4ccc(OC)cc4)c([N+](=O)[O-])cc3C(=O)C[C@@H]12 | 89.2 | 165 |
| COC(=O)[C@]1(C)CCC[C@]2(C)c3cc(Nc4ccc(C)cc4)c([N+](=O)[O-])cc3C(=O)C[C@@H]12 | 60.7 | 122.7 |
| COC(=O)[C@]1(C)CCC[C@]2(C)c3cc(Nc4ccccc4)c([N+](=O)[O-])cc3C(=O)C[C@@H]12 | 60.7 | 106.9 |
| COC(=O)[C@]1(C)CCC[C@]2(C)c3cc(NC(C)(C)C)c([N+](=O)[O-])cc3C(=O)C[C@@H]12 | 175.6 | 103.6 |
| COC(=O)[C@]1(C)CCC[C@]2(C)c3cc(NC(C)C)c([N+](=O)[O-])cc3C(=O)C[C@@H]12 | 102.9 | 168.3 |

Now from value to molecule:

| Ka [1] [L/mol] | Ka [2] [L/mol] | SMILES |
| --- | --- | --- |
| 97.6 | 305.9 | COC(=O)[C@]1(C)CCC[C@]2(C)c3cc(NCCN)c([N+](=O)[O-])cc3C(=O)C[C@@H]12 |
| 70.3 | 108 | COC(=O)[C@]1(C)CCC[C@]2(C)c3cc(NCCO)c([N+](=O)[O-])cc3C(=O)C[C@@H]12 |
| 137.2 | 181.7 | CCCCNc1cc2c(cc1[N+](=O)[O-])C(=O)C[C@H]1[C@](C)(C(=O)OC)CCC[C@]21C |
| 61.7 | 135.7 | CCCNc1cc2c(cc1[N+](=O)[O-])C(=O)C[C@H]1[C@](C)(C(=O)OC)CCC[C@]21C |
| 81.3 | 138.3 | CCNc1cc2c(cc1[N+](=O)[O-])C(=O)C[C@H]1[C@](C)(C(=O)OC)CCC[C@]21C |
| 107 | 186 | CNc1cc2c(cc1[N+](=O)[O-])C(=O)C[C@H]1[C@](C)(C(=O)OC)CCC[C@]21C |
